Data from patent US20260137697A1, “THIAZOLO[5,4-D]PYRIMIDINE COMPOUNDS, COMPOSITIONS COMPRISING THEM AND USES THEREOF” (University de Montreal, priority 2022, published 2026).
Where two headings read alike, the source gives them in different places.

Columns and labels:
Format in all cases: cell-based, human
[1] = test system: pERK, NCIH2087 cells; test: Phospho-ERK inhibition, AlphaLISA p-ERK 1/2, NCIH2087; details: Table D-2; for IC50: NCIH2087 (BRAF L597V; KRAS Q61K); for pERK value in parentheses, % inhibition (Ymin): NCIH2087, lowest point of IC50 curve
Experimental: (§1) All cancer cell lines (A375, A101D, A2058, RKO, HT29 SK-MEL 30, IPC298, HepG2, HCT-116, Lovo, SW620, SW480, NCI-H358, NCI-H2122, Calu-6, NCIH2087, NCIH1755, NCIH1666 and Mewo) were obtained from ATCC and cultured in RPM1-1640 medium (Gibco) supplemented with 5% heat inactivated fetal bovine serum (FBS, Wisent) at 37° C. under 5% CO2. Cells were maintained in T175 flasks (Greiner). They were passaged by removing the culture medium, washing once in 10 mL of room temperature Phosphate Buffered Saline (PBS; Wisent) and incubating at 37° C. with 2 mL of 0.05% Trypsin (Thermo-Fisher). Trypsin was then inactivated by adding complete growth medium and the cells were then replated in a T175 culture dish at the appropriate dilution. All cell lines were routinely tested for mycoplasma contamination. Tissue type and mutational status of each cell line can be found in Table B.
(§2) (c) Measurement of Phospho-ERK Inhibition in Cultivated Human Cancer Cell Lines by the AlphaLISA® SureFire® Ultra™ p-ERK 1/2 (Thr2O2/Tyr204)
(§3) AlphaLISA® SureFire® Ultra™ p-ERK 1/2 (Thr202/Tyr204) analysis was conducted on cells plated in 100 μL of complete RPMI-1640 growth medium in 96-well flat-bottomed transparent dishes (Costar) at a density indicated in Table C. Cells were maintained overnight at 37° C. under 5% CO2 before treatment with compounds' dilution series for one hour. The cell density in cells/cm^2 corresponds to cell number divided by the area of one well of a 96-well plate (0.143 cm^2).
(§4) In a dilution series 100 μL/well of test substance dilution prepared in complete RPMI-1640 growth media was added to the cells. The dilution series is selected so that ten concentrations cover a range from 10 μM to 0.33 nM. If necessary, the initial concentration of 10 μM is increased to 100 μM or lowered to 1 μM (as in the case of A375 and H1666 cells, which are generally more sensitive to the compounds) and further dilution is carried out accordingly. The final concentration of DMSO in the assay is set at 0.5%.
(§5) After treatment, media was removed, and cells were lysed in 50 μL of 1× AlphaScreen Ultra Lysis Buffer (Perkin Elmer). The AlphaLISA® SureFire® Ultra™ p-ERK 1/2 (Thr202/Tyr204) (PerkinElmer) reactions were performed with 5 μL of cell lysate according to the manufacturer's specifications in 384-well proxyplates (Perkin Elmer) followed by overnight incubation of the reactions at room temperature in a humidified chamber. After completion of the reactions, the signals were recorded on an EnVision plate reader (Perkin Elmer) using built in AlphaLISA® settings.
(§6) The effect of each compound dilution on the pERK signal was expressed in % inhibition and calculated as follows. An internal 100% inhibition control (1 μM trametinib, cat. No. HY-10999; MedChem Express; CAS No. 871700-17-3) was included in each plate and used as a measure of pERK background. First, the value obtained for trametinib was subtracted from each data point. The average of DMSO (vehicle) controls (set as 0% inhibition) was established and used to calculate % inhibition:
(§7) The ability of each compound to inhibit pERK signal was expressed as an IC50 value obtained by plotting the inhibition values for each data point of a dilution series and fitting the obtained curves using a log(agonist) versus response—variable slope (four parameters) function using GraphPadPrism (V7.0) or Dotmatics Screening Ultra platform.
(§8) When present, paradoxical pERK induction is inferred from the negative % inhibition values observed in the pERK IC50 curves of a compound.

[2] = test system: HCT116 cells; test: Proliferation inhibition, CellTiter-Glo, HCT116; details: Table D-1, HCT116 (KRAS G13D), 3 days, read-out: Prolif. (proliferation EC50)
Experimental: as §1
(§9) CellTiter-Glo® viability analysis was conducted on cells plated in 100 μL of complete RPMI-1640 growth medium in 96-well flat-bottomed white opaque plates (Greiner or Croning) at a density indicated in Table E (for each CCL, number of cells plated per well of a 96-well plate to perform the CellTiter-Glo® cell viability assay). The cell density in cells/cm^2 would correspond to cell number divided by the area of one well of a 96-well plate (0.32 cm^2). […]
(§10) After 3 days of incubation, the growth media were removed by aspiration and 60 μL of diluted CellTiter-Glo® reagent (10 μL CellTiter-Glo® reagent+50 μL of PBS) was added to each well. […] Luminescence signals were then acquired on a Synergy Neo2 plate reader (Biotek).
(§11) The effect of each compound dilution on the proliferation of cancer cell lines was expressed in % inhibition and calculated as follows. […]
as §7, with “proliferation” for “pERK signal”, “a EC50” for “an IC50”, “effect” for “inhibition”

[3] = test system: pERK, Mewo cells; test: Phospho-ERK inhibition, AlphaLISA p-ERK 1/2, Mewo; details: Table D-2; for IC50: Mewo (NF1 LOF); for pERK value in parentheses, % inhibition (Ymin): Mewo, lowest point of IC50 curve
Experimental: as §1, §2, §3, §4, §5, §6, §7, §8

[4] = test system: pERK, SW480 cells; test: Phospho-ERK inhibition, AlphaLISA p-ERK 1/2, SW480; details: Table D-2; for IC50: SW480 (KRAS G12D); for pERK value in parentheses, % inhibition (Ymin): SW480, lowest point of IC50 curve
Experimental: as §1, §2, §3, §4, §5, §6, §7, §8

[5] = test system: HepG2 cells; test: Proliferation inhibition, CellTiter-Glo, HepG2; details: Table D-1, HepG2 (NRAS-Q61L), 3 days, read-out: Prolif. (proliferation EC50)
Experimental: as §1, §9, §10, §11
as §7, with “proliferation” for “pERK signal”, “a EC50” for “an IC50”, “effect” for “inhibition”

| IC50 ([1]; Homo sapiens, NCI-H2087) | EC50 ([2]; Homo sapiens, HCT-116, 72 h) | IC50 ([3]; Homo sapiens) | IC50 ([4]; Homo sapiens) | EC50 ([5]; Homo sapiens, 72 h) | IC50 [1] | EC50 [2] | IC50 [3] | IC50 [4] | EC50 [5] | Structure (SMILES) | pERK value in parentheses, % inhibition (Ymin) [1] | pERK value in parentheses, % inhibition (Ymin) [3] | pERK value in parentheses, % inhibition (Ymin) [4] |
| --- | --- | --- | --- | --- | --- | --- | --- | --- | --- | --- | --- | --- | --- |
| < 30 nM | 300 to 3000 nM | 30 to 300 nM | 30 to 300 nM | < 300 nM |  |  |  |  |  | Cc1ccc2c(Nc3cccc(Cl)c3F)nccc2c1NC(=O)c1csc2c(N)ncnc12 [Belvarafenib, reference compound] | 6% | (−116) % | (−100) % |
|  |  |  |  |  | < 30 nM | < 300 nM | < 30 nM | 30 to 300 nM | < 300 nM | Cc1c(F)cccc1S(=O)(=O)Nc1ccc(F)c(Nc2ncnc3sc(-n4cc(C(=O)N5C6CCC5CN(C)C6)c5ccccc54)nc23)c1F [Example 44] | 4% | (3) % | (−4) % |
|  |  |  |  |  | < 30 nM | < 300 nM | 30 to 300 nM | 30 to 300 nM | < 300 nM | N#CC1(c2cccc3c2ncn3-c2nc3c(Nc4c(F)ccc(NS(=O)(=O)c5cccc(Cl)c5Cl)c4F)ncnc3s2)CC1 [Example 122] | 4% | (2) % | (5) % |
